Measured values reported in patent US8119666B2, “1,2,5-thiazolidine derivatives useful for treating conditions mediated by protein tyrosine phosphatases (PTPase)” (Novartis AG, priority 2005, dated 2012).

Molecular target: T1, human PTP-1B (Homo sapiens, UniProt P18031)
T1 construct: recombinant human PTP-1B[1-298] or PTP-1B[1-322]
T1 sequence (P18031 1-298 limits assumed): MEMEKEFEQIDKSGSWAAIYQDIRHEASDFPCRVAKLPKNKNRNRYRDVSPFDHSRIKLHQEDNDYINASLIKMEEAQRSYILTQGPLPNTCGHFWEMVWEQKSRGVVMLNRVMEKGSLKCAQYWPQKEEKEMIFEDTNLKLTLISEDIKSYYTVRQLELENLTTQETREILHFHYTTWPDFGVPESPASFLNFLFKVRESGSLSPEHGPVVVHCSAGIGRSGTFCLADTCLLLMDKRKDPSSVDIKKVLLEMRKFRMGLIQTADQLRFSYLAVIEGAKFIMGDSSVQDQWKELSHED
Assay: PTP-1B inhibitory activity in vitro (IC50)
Assay type: biochemical
Details: inhibitory activity to human PTP-1B; which of the described assay formats was used is not stated
Procedure: Assessment of human PTP-1B (hPTP-1B) activity in the presence of various agents is determined by measuring the amount of inorganic phosphate released from a phosphopeptide substrate using a 96-well microtiter plate format. The assay (100 μL) is performed in an assay buffer comprised of 50 mM TRIS (pH 7.5), 50 mM NaCl, 3 mM DTT at ambient temperature. The assay is typically performed in the presence of 0.4% dimethyl sulfoxide (DMSO). However, concentrations as high as 10% are used with certain poorly soluble compounds. […] Inorganic phosphate, a product of the enzyme reaction, is quantitiated after 15 min as the green color resulting from complexing with the Malichite reagent and is determined as an A620 using a Molecular Devices (Sunnyvale, Calif.) SpectraMAX Plus spectrophotometer. […] Activity is defined as the net change in absorbance resulting from the activity of the uninhibited hPTP-1B[1-411] minus that of a tube with acid-inactivated hPTP-1B[1-411].
Alternatively, the assessment of human PTP-1B activity in the presence of various agents may be determined by measuring the hydrolysis products of known competing substrates. For example, cleavage of substrate para-nitrophenylphosphate (pNPP) results in the release of the yellow-colored para-nitrophenol (pNP) which can be monitored in real time using a spectrophotometer. […]

SMILES	IC50 [nM]
CS(=O)(=O)Oc1c(Cl)cccc1Cc1ccc(N2CC(=O)NS2(=O)=O)c(O)c1 [Example No. 52-1, Methanesulfonic acid 2-chloro-6-[3-hydroxy-4-(1,1,4-trioxo-1,2,5-thiadiazolidin-2-yl)-benzyl]-phenyl ester]	126
COc1ccc(Cc2ccc(N3CC(=O)NS3(=O)=O)c(O)c2)c(OS(C)(=O)=O)c1 [Example No. 52-3, Methanesulfonic acid 2-[3-hydroxy-4-(1,1,4-trioxo-1,2,5-thiadiazolidin-2-yl)-benzyl]-5-methoxyphenyl ester]	133
